Assay results: patent publication US11629171B2, “Beta-hairpin peptidomimetics” (POLYPHOR AG, priority 2017, dated 2023)
Converted amounts (≈) assume the structure as drawn. Where a SMILES comes first, the peptide text is derived from it. Bridges are numbered along the chain shown (N, C = ends). Roman numbers before positions name the chains, in order. [ ]: non-standard residue; d: D form. Thr(ol) = C[C@@H](O)[C@H](N)CO; Tle = CC(C)(C)[C@H](N)C(=O)O; Hiv = CC(C)[C@H](O)C(=O)O; dDab = NCC[C@@H](N)C(=O)O; hCys = N[C@@H](CCS)C(=O)O; hSer = N[C@@H](CCO)C(=O)O; Dab = NCC[C@H](N)C(=O)O; Dap = NC[C@H](N)C(=O)O

Tests used:
Assay type in all cases: cell-based
[1] = test system: human red blood cells (hRBC); assay: Hemolysis; conditions: red cells of human, 1 h, 200
How it was run: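 First, fresh human erythrocytes are washed in PBS; next, they are incubated at 20% (v/v) with compound at 200 μg/mL for 1 h at 37° C. Finally, centrifuged supernatants are diluted and OD540 is taken relative to the Triton X-100 lysis control.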

[2] = test system: Acinetobacter baumannii 872842; conditions: 872842
How it was run: (§1)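 MIC in μg/mL, read as absence of visible growth after 18-20 h incubation at 35° C, by standard CLSI microdilution. Peptides tested in two-fold serial dilution in cation-adjusted MH-II broth containing 0.002% (final) Polysorbate 80, against roughly 10^6 CFU/mL inocula.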

[3] = test system: Klebsiella pneumoniae SSI #3010; conditions: SSI #3010
How it was run: as §1

[4] = test system: Klebsiella pneumoniae 968733; conditions: 968733
How it was run: as §1

[5] = test system: Enterobacter cloacae 848840; conditions: 848840
How it was run: as §1

[6] = test system: Escherichia coli 926415; conditions: 926415
How it was run: as §1

[7] = test system: Escherichia coli ATCC 25922; conditions: ATCC 25922
How it was run: as §1

[8] = test system: Acinetobacter baumannii DSM 30008; conditions: DSM 30008
How it was run: as §1

[9] = test system: Pseudomonas aeruginosa ATCC 27853; conditions: ATCC 27853
How it was run: as §1

| MIC [2] [µg/mL] | MIC [3] [µg/mL] | MIC [4] [µg/mL] | MIC [5] [µg/mL] | MIC [6] [µg/mL] | MIC [7] [µg/mL] | MIC [8] [µg/mL] | MIC [9] [µg/mL] | Klebsiella pneumoniae SSI #3010 MIC [3] [µg/mL] | Escherichia coli ATCC 25922 MIC [7] [µg/mL] | Acinetobacter baumannii DSM 30008 MIC [8] [µg/mL] | Pseudomonas aeruginosa ATCC 27853 MIC [9] [µg/mL] | SMILES | Hemolysis at 200 μg/mL [1] [%] |
| --- | --- | --- | --- | --- | --- | --- | --- | --- | --- | --- | --- | --- | --- |
| 4 (≈ 1.62 µM) | – | 0.5 (≈ 0.203 µM) | 8 (≈ 3.24 µM) | 0.25 (≈ 0.101 µM) | – | – | – | 0.125 | 0.125 | 1 | 0.25 | CC(=O)N[C@@H](CC(C)C)C(=O)N[C@H]1CSSC[C@@H](C(=O)N[C@@H](CO)C(N)=O)NC(=O)[C@H](C(C)(C)C)NC(=O)[C@H](CCN)NC(=O)[C@H](Cc2c[nH]c3ccccc23)NC(=O)[C@H](CCN)NC(=O)[C@@H](CCN)NC(=O)[C@H](CCC(=O)N[C@@H](CCN)C(=O)N[C@H](C(=O)N[C@@H](CCN)C(=O)N[C@H]2CCNC(=O)[C@H]([C@@H](C)O)NC(=O)[C@H](CCN)NC(=O)[C@H](CCN)NC(=O)[C@H](CC(C)C)NC(=O)[C@@H](CC(C)C)NC(=O)[C@H](CCN)NC2=O)[C@@H](C)O)NC(=O)[C@H](CCN)NC(=O)[C@H](Cc2ccc(O)cc2)NC1=O [Ex. 352] (I: Ac-LCY[Dab]E[dDab][Dab]W[Dab][Tle]CS-NH2 / II: [Dab]T[Dab][Dab][Dab][dL]L[Dab][Dab]T; disulfide I:2-I:11; amide I:5-II:N; lactam II:4-II:C) | <1 |
| 0.25 (≈ 0.105 µM) | 0.125 (≈ 0.0527 µM) | 0.125 (≈ 0.0527 µM) | 2 (≈ 0.844 µM) | 0.0625 (≈ 0.0264 µM) | 0.0625 (≈ 0.0264 µM) | 0.0625 (≈ 0.0264 µM) | 0.125 (≈ 0.0527 µM) | – | – | – | – | CC(C)C[C@@H]1NC(=O)[C@@H](CC(C)C)NC(=O)[C@H](CCN)NC(=O)[C@@H](NC(=O)[C@H](CCN)NC(=O)[C@@H](NC(=O)[C@H](CCN)NC(=O)CC[C@@H]2NC(=O)[C@H](CCN)NC(=O)[C@H](Cc3ccc(O)cc3)NC(=O)[C@@H](NC(=O)[C@@H](O)C(C)C)CSSC[C@@H](C(=O)N[C@H](CO)[C@@H](C)O)NC(=O)[C@H](C(C)(C)C)NC(=O)CNC(=O)[C@H](Cc3c[nH]c4ccccc34)NC(=O)[C@H](CCO)NC(=O)[C@@H](CCN)NC2=O)[C@@H](C)O)CCNC(=O)[C@H]([C@@H](C)O)NC(=O)[C@H](CCN)NC(=O)[C@H](CCN)NC1=O [Ex. 87] (I: H-[Hiv]CY[Dab]E[dDab][hSer]WG[Tle]C[Thr(ol)] / II: [Dab]T[Dab][Dab][Dab][dL]L[Dab][Dab]T; disulfide I:2-I:11; amide I:5-II:N; lactam II:4-II:C) | <1 |
| 0.03125 (≈ 0.013 µM) | 0.0625 (≈ 0.026 µM) | 0.0625 (≈ 0.026 µM) | 0.0625 (≈ 0.026 µM) | 0.03125 (≈ 0.013 µM) | 0.01562 (≈ 0.00651 µM) | 0.01562 (≈ 0.00651 µM) | 0.0625 (≈ 0.026 µM) | – | – | – | – | CC(=O)N[C@H](C(=O)N[C@H]1CSSC[C@@H](C(=O)N[C@H](CO)[C@@H](C)O)NC(=O)[C@H](C(C)(C)C)NC(=O)[C@H](CO)NC(=O)[C@H](Cc2c[nH]c3ccccc23)NC(=O)[C@H](CO)NC(=O)[C@@H](CCN)NC(=O)[C@H](CCC(=O)N[C@@H](CCN)C(=O)N[C@H](C(=O)N[C@@H](CN)C(=O)N[C@H]2CCNC(=O)[C@H]([C@@H](C)O)NC(=O)[C@H](CCN)NC(=O)[C@H](CCN)NC(=O)[C@H](CC(C)C)NC(=O)[C@@H](CC(C)C)NC(=O)[C@H](CCN)NC2=O)[C@@H](C)O)NC(=O)[C@H](CN)NC(=O)[C@H](Cc2ccc(O)cc2)NC1=O)C(C)C [Ex. 123] (I: Ac-VCY[Dap]E[dDab]SWS[Tle]C[Thr(ol)] / II: [Dab]T[Dap][Dab][Dab][dL]L[Dab][Dab]T; disulfide I:2-I:11; amide I:5-II:N; lactam II:4-II:C) | <1 |

The remaining lines, values behind:

| SMILES | MIC [2] [µg/mL] | MIC [3] [µg/mL] | MIC [4] [µg/mL] | MIC [5] [µg/mL] | MIC [6] [µg/mL] | MIC [7] [µg/mL] | MIC [8] [µg/mL] | MIC [9] [µg/mL] | Klebsiella pneumoniae SSI #3010 MIC [3] [µg/mL] | Escherichia coli ATCC 25922 MIC [7] [µg/mL] | Acinetobacter baumannii DSM 30008 MIC [8] [µg/mL] | Pseudomonas aeruginosa ATCC 27853 MIC [9] [µg/mL] | Hemolysis at 200 μg/mL [1] [%] |
| --- | --- | --- | --- | --- | --- | --- | --- | --- | --- | --- | --- | --- | --- |
| CC(=O)N[C@@H](CCN)C(=O)N[C@H](C(=O)N[C@H](C(=O)N[C@@H](Cc1ccc(O)cc1)C(=O)N[C@H]1CSSC[C@@H](C(=O)N[C@H](C(=O)N[C@@H](C)C(=O)N[C@H](C(N)=O)C(C)C)C(C)(C)C)NC(=O)[C@H](Cc2c[nH]c3ccccc23)NC(=O)[C@H](CO)NC(=O)[C@@H](CCN)NC(=O)[C@H](CCC(=O)N[C@@H](CCN)C(=O)N[C@H](C(=O)N[C@@H](CN)C(=O)N[C@H]2CCNC(=O)[C@H]([C@@H](C)O)NC(=O)[C@H](CCN)NC(=O)[C@H](CCN)NC(=O)[C@H](CC(C)C)NC(=O)[C@@H](CC(C)C)NC(=O)[C@H](CCN)NC2=O)[C@@H](C)O)NC1=O)[C@@H](C)O)C(C)C [Ex. 238] (I: Ac-[Dab]VTYCE[dDab]SWC[Tle]AV-NH2 / II: [Dab]T[Dap][Dab][Dab][dL]L[Dab][Dab]T; disulfide I:5-I:10; amide I:6-II:N; lactam II:4-II:C) | 0.0625 (≈ 0.0249 µM) | 0.125 (≈ 0.0498 µM) | 0.25 (≈ 0.0996 µM) | 0.125 (≈ 0.0498 µM) | 0.125 (≈ 0.0498 µM) | 0.0625 (≈ 0.0249 µM) | 0.03125 (≈ 0.0125 µM) | 0.125 (≈ 0.0498 µM) | – | – | – | – | 2 |
| CC(=O)N[C@H](C(=O)N[C@H]1CSSC[C@@H](C(=O)N[C@@H](CO)C(N)=O)NC(=O)[C@H](C(C)C)NC(=O)[C@H](CO)NC(=O)[C@H](Cc2c[nH]c3ccccc23)NC(=O)[C@H](CO)NC(=O)[C@@H](CCN)NC(=O)[C@H](CCC(=O)N[C@@H](CCN)C(=O)N[C@@H](CCO)C(=O)N[C@@H](CN)C(=O)N[C@H]2CCNC(=O)[C@H]([C@@H](C)O)NC(=O)[C@H](CCN)NC(=O)[C@H](CCN)NC(=O)[C@H](CC(C)C)NC(=O)[C@@H](CC(C)C)NC(=O)[C@H](CCN)NC2=O)NC(=O)[C@H](CCN)NC(=O)[C@H](Cc2ccc(O)cc2)NC1=O)C(C)C [Ex. 308] (I: Ac-VCY[Dab]E[dDab]SWSVCS-NH2 / II: [Dab][hSer][Dap][Dab][Dab][dL]L[Dab][Dab]T; disulfide I:2-I:11; amide I:5-II:N; lactam II:4-II:C) | 0.5 (≈ 0.208 µM) | – | 1 (≈ 0.417 µM) | 1 (≈ 0.417 µM) | 0.5 (≈ 0.208 µM) | – | – | – | 0.25 | 0.0625 | 0.125 | 0.125 | <1 |
| CC(=O)N[C@H](C(=O)N[C@H]1CCSSC[C@@H](C(=O)N[C@@H](CO)C(N)=O)NC(=O)[C@H](C(C)(C)C)NC(=O)[C@H](CO)NC(=O)[C@H](Cc2c[nH]c3ccccc23)NC(=O)[C@H](CO)NC(=O)[C@@H](CCN)NC(=O)[C@H](CCC(=O)N[C@@H](CCN)C(=O)N[C@H](C(=O)N[C@@H](CN)C(=O)N[C@H]2CCNC(=O)[C@H]([C@@H](C)O)NC(=O)[C@H](CCN)NC(=O)[C@H](CCN)NC(=O)[C@H](CC(C)C)NC(=O)[C@@H](CC(C)C)NC(=O)[C@H](CCN)NC2=O)[C@@H](C)O)NC(=O)[C@H](CN)NC(=O)[C@H](Cc2ccc(O)cc2)NC1=O)C(C)C [Ex. 121] (I: Ac-V[hCys]Y[Dap]E[dDab]SWS[Tle]CS-NH2 / II: [Dab]T[Dap][Dab][Dab][dL]L[Dab][Dab]T; disulfide I:2-I:11; amide I:5-II:N; lactam II:4-II:C) | 0.0625 (≈ 0.0259 µM) | 0.125 (≈ 0.0518 µM) | 0.25 (≈ 0.104 µM) | 0.125 (≈ 0.0518 µM) | 0.125 (≈ 0.0518 µM) | 0.0625 (≈ 0.0259 µM) | 0.0625 (≈ 0.0259 µM) | 0.125 (≈ 0.0518 µM) | – | – | – | – | <1 |
